Laboratory results: US20260373119A1, “NOVEL COMPOUND, AND COMPOSITION FOR PREVENTING OR TREATING HER2-POSITIVE CANCER, COMPRISING SAME” (EWHA UNIVERSITY - INDUSTRY COLLABORATION FOUNDATION, priority 2022, published 2026)

What was measured:
[1] = system: JIMT-1 xenograft; assay: JIMT-1 xenograft, tumor growth; format: in vivo, mice; details: 4 mg/kg, intraperitoneal, eight times at 3-day intervals
Procedure: (§1) Xenograft mice were generated to evaluate the anticancer effects of the candidate compound. NCI-N87 and JIMT-1 cells (5×10^6 cells), dissolved in 100 μL of 1× phosphate-buffered saline (PBS), were subcutaneously injected into the right flanks of 5-week-old female athymic nude mice (Envigo, USA) or 4-week-old female NOD-SCID mice (Koatech, South Korea). When the tumors reached a volume of 90-100 mm^3, the mice were randomized into designated groups. For the NCI-N87 xenograft, intravenous administration was performed six times at 3-day intervals. For the JIMT-1 xenograft, intraperitoneal administration was performed eight times at 3-day intervals. […] Tumor size changes were monitored until the mean tumor size in the control group reached 2,000-2,500 mm^3. On day 28 for the NCI-N87 xenograft and day 46 for the JIMT-1 xenograft, the mice were sacrificed, and tumors were excised to determine relative tumor sizes. Tumor length (L) and width (W) were measured with calipers, and tumor volume was calculated using the formula: […]

[2] = system: TZMB-sensitive cells; assay: treatment of TZMB-sensitive cells; format: cell-based; details: parent BT474 and NCI-N87
Procedure: The ability of the candidate compound to overcome trastuzumab resistance was evaluated.

[3] = JIMT-1 xenograft, body weight; format: in vivo, mice; details: 4 mg/kg
Procedure: Xenograft mice were generated to evaluate the anticancer effects of the candidate compound. […] When the tumors reached a volume of 90-100 mm^3, the mice were randomized into designated groups. […] For the JIMT-1 xenograft, intraperitoneal administration was performed eight times at 3-day intervals. […] Tumor size changes were monitored until the mean tumor size in the control group reached 2,000-2,500 mm^3. On day 28 for the NCI-N87 xenograft and day 46 for the JIMT-1 xenograft, the mice were sacrificed, and tumors were excised to determine relative tumor sizes. Tumor length (L) and width (W) were measured with calipers, and tumor volume was calculated using the formula:
To assess resistance-avoidance effects in vivo, JIMT-1 xenograft mice were treated with 4 mg/kg of the candidate compound or TZMB.

[4] = target: T1, MED23-ELK1 PPI (Homo sapiens, UniProt Q9ULK4); assay: immunoprecipitation, MED23-ELK1 PPI; format: cell-based
T1 construct: co-immunoprecipitation of ELK1, probably endogenous
Procedure: NCI-N87 cells from a gastric cancer cell line were seeded in a 100 mm cell culture dish and cultured until they reached 60-70% confluence. The cultured cells were transfected with p3Xflag-myc-CMV26-empty or p3Xflag-myc-CMV26-MED23^WT plasmids using Lipofectamine® 2000 (Invitrogen, USA). After transfection, YK1 (5 μM) was added 12 hours post-transfection, and the cells were cultured for 12 hours. A total of 750 μg of cell lysate was incubated with 20 μL of FLAG-agarose bead slurry (Sigma Aldrich, USA) on a rotator at 4 °C for 4 hours. The sample was centrifuged at 12,000 rpm for 1 minute to precipitate the beads. After removing the supernatant, the remaining beads were washed three times with 200 μL of lysis buffer (RIPA).
After removing the final supernatant, the beads were eluted by boiling with 2× sample buffer at 98 °C for 5 minutes. The immunoprecipitated proteins were loaded, separated by SDS-PAGE, and analyzed by Western blotting.

[5] = system: HER2; assay: JIMT-1 xenograft, HER2 levels; format: in vivo, mice; details: 4 mg/kg
Procedure: as §1
For immunohistochemistry (IHC) analysis, tumors from the xenograft models were prepared as paraffin-embedded sections. […] The control group was counterstained with hematoxylin, and the IHC staining was evaluated under an optical microscope at 200× magnification.

[6] = system: NCI-N87 cells; assay: cell cycle analysis (FACS); format: cell-based
Procedure: (§2) Specifically, 5×10^5 NCI-N87 cells were seeded in 60 mm dishes and cultured until they reached 70-80% confluence. The cells were treated with varying concentrations of the candidate compound and cultured for 8 hours. The cells were treated with trypsin and then washed with cold PBS (pH 7.4). For cell cycle analysis, the cells were fixed with 70% ethanol and cultured at 4 °C for 30 minutes, followed by staining with FxCycle™ PI/RNase staining solution (Invitrogen™, USA). Cell cycle analysis was performed using a fluorescence-activated cell sorting (FACS) device (BD Biosciences, USA).

[7] = system: NCI-N87 cells; assay: apoptosis analysis (Annexin V, FACS); format: cell-based; details: dose-dependent
Procedure: as §2
Cells for apoptosis analysis were prepared using the same method as described for the cell cycle analysis. The cells were treated with trypsin, washed with 1×PBS, and resuspended in each sample using the FITC Annexin V Apoptosis Detection Kit I (BD Pharmingen™). Apoptosis was analyzed using a FACS device.

T1 sequence (Q9ULK4 whole entry): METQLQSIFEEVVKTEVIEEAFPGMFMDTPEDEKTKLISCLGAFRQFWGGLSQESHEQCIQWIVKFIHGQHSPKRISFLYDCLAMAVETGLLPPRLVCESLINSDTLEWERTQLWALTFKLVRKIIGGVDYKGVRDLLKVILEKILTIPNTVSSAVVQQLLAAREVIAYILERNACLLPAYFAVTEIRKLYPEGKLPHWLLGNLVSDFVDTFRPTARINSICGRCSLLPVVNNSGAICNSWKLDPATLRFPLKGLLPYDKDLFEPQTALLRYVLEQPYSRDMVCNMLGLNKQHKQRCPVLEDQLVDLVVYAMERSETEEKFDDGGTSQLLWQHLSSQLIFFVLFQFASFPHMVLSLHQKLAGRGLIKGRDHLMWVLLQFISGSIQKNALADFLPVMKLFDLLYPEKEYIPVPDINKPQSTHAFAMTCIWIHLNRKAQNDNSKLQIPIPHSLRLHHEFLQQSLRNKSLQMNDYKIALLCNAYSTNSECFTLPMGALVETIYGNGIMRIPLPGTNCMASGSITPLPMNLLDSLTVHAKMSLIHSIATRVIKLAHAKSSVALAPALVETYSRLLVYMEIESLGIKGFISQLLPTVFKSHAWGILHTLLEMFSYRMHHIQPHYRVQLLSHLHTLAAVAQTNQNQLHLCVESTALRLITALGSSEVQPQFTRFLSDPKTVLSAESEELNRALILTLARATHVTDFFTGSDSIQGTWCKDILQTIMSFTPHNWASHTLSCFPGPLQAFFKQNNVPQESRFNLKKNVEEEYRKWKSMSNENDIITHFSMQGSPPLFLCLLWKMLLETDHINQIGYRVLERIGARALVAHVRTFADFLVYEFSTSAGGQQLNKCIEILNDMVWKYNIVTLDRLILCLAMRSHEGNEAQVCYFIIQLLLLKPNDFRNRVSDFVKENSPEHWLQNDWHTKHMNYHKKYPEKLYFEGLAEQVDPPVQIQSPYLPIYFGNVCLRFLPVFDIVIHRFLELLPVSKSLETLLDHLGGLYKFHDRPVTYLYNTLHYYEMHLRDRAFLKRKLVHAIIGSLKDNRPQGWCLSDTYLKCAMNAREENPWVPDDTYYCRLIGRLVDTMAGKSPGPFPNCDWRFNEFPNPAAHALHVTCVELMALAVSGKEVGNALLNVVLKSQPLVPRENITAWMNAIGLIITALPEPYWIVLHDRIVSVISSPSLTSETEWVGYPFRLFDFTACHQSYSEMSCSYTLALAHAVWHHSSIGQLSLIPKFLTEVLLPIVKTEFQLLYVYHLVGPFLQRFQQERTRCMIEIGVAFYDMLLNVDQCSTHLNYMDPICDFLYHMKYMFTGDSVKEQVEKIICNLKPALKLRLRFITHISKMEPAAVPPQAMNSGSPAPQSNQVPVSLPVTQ

PPI inhibitory effect on MED23-ELK1 [4]: did not inhibit these PPIs
Structure (SMILES): CC(=O)N1N=C(c2cccc(O)c2)CC1c1ccc(Cl)cc1 (centres unmarked) [Compound 15, 1-[5-(4-Chlorophenyl)-3-(3-hydroxyphenyl)-4,5-dihydropyrazol-1-yl]-ethanone]
tumor growth and volume [1]: significant decrease in tumor growth and volume | anticancer effect in TZMB-sensitive cells [2]: significant anticancer effects not only in TZMB-sensitive cells but also in TZMB-resistant cells | body weight [3]: remained generally consistent | HER2 levels [5]: significant reduction in HER2 levels | G1 arrest, S and G2/M phases [6]: promoted overall G1 arrest, accompanied by a decrease in the S and G2/M phases | G1 cell fraction ([6]; time- and dose-dependent): significant increase in the G1 cell fraction | apoptosis [7]: significantly promoted apoptosis in a dose-dependent manner
